The source of these data is paper PMC12951562, “SH2scan: Mapping SH2 Domain-Ligand Binding Selectivity for Inhibitors and Degraders” (Journal of Medicinal Chemistry, 2026).

The Kd is the equilibrium constant for the complex coming apart.

Holding throughout (assay): biochemical
Type in all cases: binding

In one assay the target is T1, SOCS2 (Homo sapiens, UniProt O14508).
T1 construct: made in house; host or cells: HEK293 (transient transfection), unpurified extract
T1 sequence (O14508 1-198): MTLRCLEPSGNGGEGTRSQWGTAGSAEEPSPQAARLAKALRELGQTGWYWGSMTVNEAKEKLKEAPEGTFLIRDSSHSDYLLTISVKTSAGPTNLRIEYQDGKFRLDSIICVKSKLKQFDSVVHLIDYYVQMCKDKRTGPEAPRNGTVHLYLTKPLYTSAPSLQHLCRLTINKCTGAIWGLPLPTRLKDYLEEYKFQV

Another assay has as its target T2, SOCS3 (Homo sapiens, UniProt O14543).
T2 construct: made in house; host or cells: HEK293 (transient transfection), unpurified extract
T2 sequence (O14543 1-225): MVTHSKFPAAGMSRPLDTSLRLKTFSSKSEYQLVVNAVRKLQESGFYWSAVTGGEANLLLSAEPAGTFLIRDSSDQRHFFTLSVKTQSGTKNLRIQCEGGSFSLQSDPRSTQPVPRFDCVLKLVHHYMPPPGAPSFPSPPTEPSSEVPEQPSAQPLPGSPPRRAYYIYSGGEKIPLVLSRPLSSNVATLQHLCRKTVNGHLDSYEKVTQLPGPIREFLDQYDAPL

Another assay concerns the target T3, PLCG1(SH2dom.C-term.) (Homo sapiens, UniProt P19174).
T3 construct: SH2dom.C-term. denotes SH2 domain closest to C-terminus of protein; made in house; host or cells: HEK293 (transient transfection, unpurified extract)
T3 sequence (P19174 668-756 limits assumed): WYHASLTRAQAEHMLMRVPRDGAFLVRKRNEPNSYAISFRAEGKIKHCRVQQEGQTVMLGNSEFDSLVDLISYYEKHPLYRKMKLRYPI

For another assay, the target named is T4, TXK (Homo sapiens, UniProt P42681).
T4 construct: made in house; host or cells: HEK293 (transient transfection), unpurified extract
T4 sequence (P42681 1-527): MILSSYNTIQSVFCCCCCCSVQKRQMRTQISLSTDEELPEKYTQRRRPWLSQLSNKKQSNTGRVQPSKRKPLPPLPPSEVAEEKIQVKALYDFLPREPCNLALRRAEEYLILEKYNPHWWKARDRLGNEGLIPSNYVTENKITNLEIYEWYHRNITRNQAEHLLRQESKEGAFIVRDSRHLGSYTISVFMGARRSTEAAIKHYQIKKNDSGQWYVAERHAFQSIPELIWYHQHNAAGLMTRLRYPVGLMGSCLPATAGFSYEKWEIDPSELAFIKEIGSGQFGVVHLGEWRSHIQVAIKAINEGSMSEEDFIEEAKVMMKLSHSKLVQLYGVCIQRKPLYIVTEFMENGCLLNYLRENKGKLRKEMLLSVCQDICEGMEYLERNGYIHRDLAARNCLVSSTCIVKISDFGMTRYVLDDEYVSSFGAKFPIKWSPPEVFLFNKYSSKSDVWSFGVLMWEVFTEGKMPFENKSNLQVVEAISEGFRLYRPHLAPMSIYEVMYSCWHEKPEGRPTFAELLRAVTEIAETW
The conditions noted are these: primary screen, 10 μM; read-out: percent of DMSO vehicle control.

The target of a further assay is T5, SHC4 (Homo sapiens, UniProt Q6S5L8).
T5 construct: made in house; host or cells: HEK293 (transient transfection), unpurified extract
T5 sequence (Q6S5L8 1-630): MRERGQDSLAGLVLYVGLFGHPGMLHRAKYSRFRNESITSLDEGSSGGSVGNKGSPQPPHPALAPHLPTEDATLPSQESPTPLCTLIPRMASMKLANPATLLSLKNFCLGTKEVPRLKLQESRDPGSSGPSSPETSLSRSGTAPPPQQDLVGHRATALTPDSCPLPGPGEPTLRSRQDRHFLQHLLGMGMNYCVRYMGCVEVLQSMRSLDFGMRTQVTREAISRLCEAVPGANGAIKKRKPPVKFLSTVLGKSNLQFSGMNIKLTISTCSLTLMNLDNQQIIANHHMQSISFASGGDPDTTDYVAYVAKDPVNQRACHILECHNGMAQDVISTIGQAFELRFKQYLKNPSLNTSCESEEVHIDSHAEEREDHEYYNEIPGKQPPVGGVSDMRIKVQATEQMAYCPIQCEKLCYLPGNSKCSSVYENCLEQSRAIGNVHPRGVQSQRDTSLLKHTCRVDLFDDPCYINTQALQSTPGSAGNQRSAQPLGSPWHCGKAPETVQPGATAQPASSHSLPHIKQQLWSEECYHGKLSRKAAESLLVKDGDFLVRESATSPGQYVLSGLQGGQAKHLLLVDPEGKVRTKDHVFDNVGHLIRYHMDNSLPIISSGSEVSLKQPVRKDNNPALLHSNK
The conditions noted are these: primary screen, 10 μM; read-out: percent of DMSO vehicle control.

A further assay deals with T6, MATK (Homo sapiens, UniProt P42679).
T6 construct: the DNA-tagged SH2 domain concentrations used in this study were <0.1 nM; made in house; host or cells: HEK293 (transient transfection, unpurified extract)
T6 sequence (P42679 122-211 limits assumed): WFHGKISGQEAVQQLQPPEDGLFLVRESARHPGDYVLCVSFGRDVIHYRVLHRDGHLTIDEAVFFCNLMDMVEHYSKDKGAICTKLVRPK
The following applies: primary screen, 10 μM; read-out: percent of DMSO vehicle control.

The target of the next assay is T7, SRMS (Homo sapiens, UniProt Q9H3Y6).
T7 construct: made in house; host or cells: HEK293 (transient transfection), unpurified extract

The target of the next assay is T8, SOCS7 (Homo sapiens, UniProt O14512).
T8 construct: made in house; host or cells: HEK293 (transient transfection), unpurified extract
T8 sequence (O14512 1-581): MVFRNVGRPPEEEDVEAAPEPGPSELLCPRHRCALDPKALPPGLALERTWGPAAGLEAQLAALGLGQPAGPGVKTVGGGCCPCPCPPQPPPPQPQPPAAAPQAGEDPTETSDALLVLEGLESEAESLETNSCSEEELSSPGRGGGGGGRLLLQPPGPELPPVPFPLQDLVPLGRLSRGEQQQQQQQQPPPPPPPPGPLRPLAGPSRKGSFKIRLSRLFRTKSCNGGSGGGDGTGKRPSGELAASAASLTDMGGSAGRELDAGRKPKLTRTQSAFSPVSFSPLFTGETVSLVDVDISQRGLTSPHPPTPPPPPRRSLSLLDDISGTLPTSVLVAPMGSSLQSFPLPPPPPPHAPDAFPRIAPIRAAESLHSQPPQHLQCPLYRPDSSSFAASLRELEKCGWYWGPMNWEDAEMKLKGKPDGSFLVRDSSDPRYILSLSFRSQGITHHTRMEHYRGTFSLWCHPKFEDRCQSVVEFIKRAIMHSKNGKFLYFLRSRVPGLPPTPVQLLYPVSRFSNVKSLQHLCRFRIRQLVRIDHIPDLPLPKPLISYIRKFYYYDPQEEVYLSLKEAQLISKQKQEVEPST
The following applies: primary screen, 10 μM; read-out: percent of DMSO vehicle control.

[1] abbreviates: primary screen, 10 μM, read-out: percent of DMSO vehicle control.

T7 sequence (Q9H3Y6 whole entry): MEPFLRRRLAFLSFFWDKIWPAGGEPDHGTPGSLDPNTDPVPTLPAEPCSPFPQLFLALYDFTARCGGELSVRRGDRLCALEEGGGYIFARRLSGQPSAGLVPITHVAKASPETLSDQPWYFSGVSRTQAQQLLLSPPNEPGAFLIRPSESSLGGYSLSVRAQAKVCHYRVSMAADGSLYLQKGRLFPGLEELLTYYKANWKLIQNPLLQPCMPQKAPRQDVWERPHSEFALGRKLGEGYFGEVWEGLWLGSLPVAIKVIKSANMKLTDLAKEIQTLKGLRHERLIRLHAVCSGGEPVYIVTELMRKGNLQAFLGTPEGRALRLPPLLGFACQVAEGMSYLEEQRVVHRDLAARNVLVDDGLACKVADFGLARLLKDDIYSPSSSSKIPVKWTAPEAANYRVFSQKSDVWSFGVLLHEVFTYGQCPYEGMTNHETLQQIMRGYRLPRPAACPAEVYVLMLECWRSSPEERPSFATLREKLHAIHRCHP

`CC(C)(C)[C@H](NC(=O)/C=C/c1ccc(OP(=O)(O)O)cc1)C(=O)N1CCC[C@H]1C(=O)N(c1ccccc1)c1ccc(I)cc1` [STAT6-IN-3]: the Kd on SOCS2 (dose-response, read-out: KD) came to 1010 ± 13 nM; on PLCG1(SH2dom.C-term.) (dose-response, read-out: KD) it was 3800 ± 280 nM. Moreover, the remaining activity at 10 µM at SOCS2 (setting [1]) stood at 7.9 ± 50.6%; on SOCS3 (setting [1]), 52.6 ± 50.6%; at PLCG1(SH2dom.C-term.) (setting [1]), 24.7 ± 7%; on TXK, 85.4 ± 12.9%; at SHC4, 90.2 ± 12%; at MATK it was 70.3 ± 45.8%. The remaining activity at 10 µM on SRMS (setting [1]) worked out at 8.5 ± 53.2%; at SOCS7 it was 50.9 ± 16.4%. The KD result at SOCS3 (dose-response) and at SRMS (dose-response) was “No Hit” throughout.
